This note sets out measurements from PMC12250624, “Anti-Amyloid Aggregation Effects of Gobaishi (Galla chinensis) and Its Active Constituents” (Molecules, 2025).

The target of the assay is T1, Aβ42 (amyloid-beta) (Homo sapiens, UniProt P05067).
T1 construct: gene APP; Aβ42
In words: ThT fibril aggregation assay, […] Aβ[…] h at […] °C. Format: biochemical.

T1 sequence (P05067 672-713): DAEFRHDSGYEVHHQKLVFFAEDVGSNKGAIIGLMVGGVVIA

The term EC50 denotes the concentration needed to bring the measured effect to its halfway point. Higher therefore signals lower potency in that assay. In the case of `O=C(/C=C/c1ccc(O)c(O)c1)O[C@H](Cc1ccc(O)c(O)c1)C(=O)O` [Rosmarinic acid], it took 15 µM to reach a half-maximal effect (EC50).
